Like-named read-outs stand apart in the source and are kept apart here.
Experiments:
Sp1 = settings: in words; cited from earlier work
HIV-1ADA = settings: fresh human monocyte/macrophage cultures, cited from earlier work
[1] = tested on: poly (ADP-ribose) polymerase (PARP); settings: in words; cited from earlier work
CEM-SS cells = settings: cited from earlier work
[2] = tested on: enzymatic activities of the viral replication cycle; settings: in words; cited from earlier work
GATA-1 = settings: in words; cited from earlier work
HeLa nuclear extract = settings: CMV promoter, duck HBV sequence; cited from earlier work
[3] = tested on: fresh human monocyte/macrophage cultures; settings: toxicity; cited from earlier work
NCp7 protein = settings: cited from earlier work; for ejection of zinc from NCp7: in words
NCp7 = target: T1, NCp7 (Human immunodeficiency virus type 1 group M subtype B, UniProt P12493); settings: 50 μM, reference compounds; cited from earlier work
T1 construct: HIV-1 nucleocapsid protein (NCp7)

HIV-1RF = settings: cited from earlier work
[4] = Dimitrov et al., 1992; cited from earlier work
[5] = tested on: GST alpha mRNA in BNL.CL2 cells; experiment: GST alpha mRNA induction, Northern blot; assay type: cell-based, mouse; settings: 24 hours
Protocol: (§1) BNL.CL2 cells were treated with Oltipraz, compound 121 described above, and compound 123 described above. All compounds were applied to the cells at 100 micromolar concentration for 24 hours.
(§2) Cells were exposed to compounds at a final concentration of 80 μM for 24 hours. RNA was isolated and analyzed by Northern blotting for the expression of the indicated genes. Control cells were incubated with vehicle alone (0.4% DMSO).
(§3) Northern blot: Treatment of BNL.CL2 cells with 100 μM Oltipraz, ALH-556, and ALH-562, ALH-561, ED 13.4, ED 14.6, DCF 070, ALH-490
(§4) BNL.CL2 cells (normal mouse embryonic liver cell line) were plated at ~3×10^5 cells/ml, grown for 16-24 hours, and treated with 0 μM and 100 μM Oltipraz, ALH-556 (121), and ALH-562 (123) for 24 hours. All three compounds were dissolved in DMSO and the final DMSO concentration present in all treatment conditions was 0.2%. BNL.CL2 cells were harvested by trypsinization and total RNA was isolated using the Trizol reagent (Gibco BRL) according to the manufacturer's procedures. 15 μg of RNA were run on a 1.1% agarose/6.6% formaldehyde gel and transferred overnight onto nitrocellulose membranes by capillary transfer using 20×SSC as transfer buffer. Subsequent to RNA transfer, the nitrocellulose membrane was baked at 80° C. for 2 hours. RNA was analyzed using a radiolabeled mouse ferritin H and human GST-α c-DNA. A human β-actin probe was used as an internal standard. The c-DNA probes were labeled with [α^32 P]dCTP by a random prime labeling. Hybridization of the c-DNA probes to the nitrocellulose membrane was performed at 68° C. for 60 minutes using the Quick-Hyb solution (Stratagene). Membranes were subjected to phosphoimager analysis after hybridization.

[6] = tested on: DT-diaphorase (NQO1) mRNA; experiment: NQO1 mRNA induction, Northern blot; assay type: cell-based, mouse; settings: 80 μM, 24 hours
Protocol: as §1, §2, §3, §4

GST [7] = settings: mice; cited from earlier work
HIV-1 = settings: Prochaska et al., 1993; cited from earlier work
phase II enzymes = settings: in words; cited from earlier work
Ferritin H mRNA = Ferritin H mRNA induction, Northern blot; assay type: cell-based, mouse; settings: 80 μM, 24 hours
Protocol: as §1, §2, §3, §4

GST [8] = settings: rats; cited from earlier work

Structure (SMILES): O=S1(=O)C[C@H](O)[C@H](O)CS1 (relative stereo) [compound 8]
- specific binding of Sp1 to DNA target (Sp1): does not affect poly (ADP-ribose) polymerase (PARP) activity or alter specific binding
- EC50 (HIV-1ADA; HIV-1ADA): 8 µM
- activity against replication of monocytotropic HIV-1ADA (HIV-1ADA; in words): active
- effect on PARP activity [1]: does not affect
- IC50 (CEM-SS cells; toxicity, CEM-SS cells, read-out: XTT assay IC50): 184 µM
- IC50 (CEM-SS cells; two fold excess of glutathione (GSH), read-out: XTT assay IC50 with GSH): > 200 µM
- effect on enzymatic activities of the viral replication cycle [2]: no other observable effect
- specific binding of GATA-1 to DNA target (GATA-1): does not affect poly (ADP-ribose) polymerase (PARP) activity or alter specific binding
- in vitro transcription (HeLa nuclear extract): did not significantly alter
- IC50 [3]: > 100 µM
- ejection of zinc from NCp7 (NCp7 protein): promoted ejection of zinc
- ejection of zinc from NCp7 (NCp7 protein; listed as NSC 624151 (8)): found to promote zinc ejection from the NCp7 protein
- TSQ NCp7 Assay (NCp7 protein; unit not given): 17
- NCp7 Trp37 Assay, % Decrease RFU/30 min, without GSH (NCp7): 17 % Decrease RFU/30 min
- EC50 (HIV-1RF; CEM-SS cells, HIV-1RF, read-out: XTT assay EC50): 6.6 µM
- activity against HIV-1 in XTT-based cytoprotection assay (HIV-1RF; in words): active
- EC50 (HIV-1RF; two fold excess of glutathione (GSH), read-out: XTT assay EC50 with GSH): 64.2 µM

Structure (SMILES): Cc1c(-c2cnccn2)ssc1=S [Oltipraz]
- toxicities [4]: photosensitivity/heat intolerance, GI effects, and neurologic toxicities
- GST α induction (mRNA) ([5]; 80 μM, Northern blot): +
- activation at 100 µM ([5]; Mus musculus, BNL CL.2, BNL.CL2 cells, 100 micromolar, read-out: increase in GST alpha mRNA levels): 340%
- NQO1 induction (mRNA) [6]: +
- elevation of GST levels (GST [7]): elevate levels of GST
- prevention of HIV-1 replication (HIV-1): prevent HIV-1 replication
- induction of phase I / phase II enzymes (phase II enzymes): monofunctional inducers
- Ferritin H induction (mRNA) (Ferritin H mRNA): +
- elevation of GST levels (GST [8]): elevate levels of GST
